Data published in US20030224034A1, “Personal care article and method for inhibiting attachment of yeast to skin” (priority 2002, published 2003).

System: Candida albicans (ATCC 10231)
Assay: Visual release protocol: inhibition of C. albicans attachment to skin (tape strips and cyanoacrylate skin pulls), fluorescence microscopy cell count
Type: cell-based
Conditions: for % Inhibition of yeast attachment / 90 View Total (number of yeast cells) / AVG per view (number of yeast cells): 2% farnesol in TSB, 60 minutes at 33 degrees Celsius; for % Inhibition of yeast attachment: 100-((sample # of cells)/(control # of cells)x100); for 90 View Total (number of yeast cells) / AVG per view (number of yeast cells): view = 6000 um^2
Method: Candida albicans (ATCC 10231) was used in this study. C. albicans was sub-cultured onto a Sabourads medium fortified with glucose (SAB-Dex) agar plate (Becton Dickinson, Cockeysville, Md.) overnight at 37 degrees Celsius. The following day, 2-3 isolated C. albicans colonies were inoculated into 20 ml SAB-Dex broth and incubated overnight shaken at 220 rpm at 32 degrees Celsius for 18 hours. The broth culture was diluted to 1×10^5 CFU/ml with phosphate buffer (VWR Industries, Batavia, Ill.).
The following protocol was used to measure the inhibition of C. albicans to skin (skin tape strips and cyanoacrylate skin pulls) by farnesol. Skin tape strips were made by pulling D-Squame skin sampling discs (CuDerm Corporation, Dallas, Tex.) four times from adjacent adult male volar forearm sites. Cyanoacrylate pulls were done by putting a small amount of super glue on the skin then placing a glass slide on the wetted surface. The glue was allowed to dry then the slide was removed, pulling off the stratum corneum. The tape strips and glue pulls (both will be referred to as strips in subsequent descriptions) were placed into deep six-well plates (Becton Dickinson, Franklin Lakes, N.J.). The strips were then blocked with 2.0 ml of 5% Bovine Serum Albumin (BSA) (Sigma, St. Louis, Mo.) in PBS buffer (150 mM NaCl, 50 mM Potassium Phosphate (KP), pH 7.4) for 60 minutes at 33 degrees Celsius while shaking at 220 rpm.
Next, each well's fluid was removed and 1.0 ml (10^5 Colony Forming Units (CFU)/ml) C. albicans was added to each strip. Then, 1.0 ml of Trypticase Soy Broth (TSB) [Difco Labs, Detroit, Mich.] containing 2% farnesol (DRAGOCO, Totowa, N.J.) was added to each strip, and the plates incubated at 33 degrees Celsius for 60 minutes. The fluid was aspirated, and the strips were washed 3 times with 3.0 ml PBS. Both sides of each tape strip were washed with a stream of PBS then placed in fresh 6-well plates.
Each strip was fixed by adding 2.0 ml of 2.5% Glutaraldehyde (Sigma Chemical, St. Louis, Mo.) to each of the wells of the 6-well plates for 10 minutes. The tape strips were then washed 3 times with 3.0 ml distilled water and stained by adding 0.5 ml Calcofluor White (Difco, Ann Arbor, Mich.) to the wells for 10 to 15 minutes. The tape strips were again washed 3 times with distilled water and then flooded with 2 ng/ml Nile Red (Sigma Chemical, St. Louis, Mo.) and allowed to air dry.
Once the tape strips air-dried, the yeast cells were enumerated automatically utilizing a Nikon Eclipse TE 300 fluorescent microscope fitted with a DAPI excitation filter and a Triple Pass barrier filter (Tokyo, Japan). The counting procedure was automated (Table 1 and Table 2) through the use of MetaMorph (Universal Imaging, Dowingtown, Pa.) software such that each sample had 30 views. Each image view was a 6000 um^2. The total field of view was approximately 25% of the total tape strip and 75% of the cyanoacrylate pull. The percent inhibition was calculated as follows: 100-((sample # of cells)/(control # of cells)×100). Approximately 10^4 yeast cells bound to a 22-mm diameter D-Squame tape strip under these conditions.

[1] = Cyanoacrylate pull of human volar forearm skin
[2] = Tape strip of human volar forearm skin

SMILES: CC(C)=CCCC(C)=CCCC(C)=CCO [Farnesol, 3,7,11-trimethyl-2,6,10-dodecatrien-1-ol]
- % Inhibition of yeast attachment [1]: 93.8%
- % Inhibition of yeast attachment (Cyanoacrylate pull of human volar forearm skin, listed as farnesol): 94%
- 90 View Total (number of yeast cells) [1]: 955
- AVG per view (number of yeast cells) [1]: 10.6
- % Inhibition of yeast attachment [2]: 63.8%
- % Inhibition of yeast attachment (Tape strip of human volar forearm skin, listed as farnesol): 64%
- 90 View Total (number of yeast cells) [2]: 6963
- AVG per view (number of yeast cells) [2]: 77.4
- inhibition of the attachment of yeast to skin (in words) (farnesol at a concentration of 2%): effectively inhibit the attachment of yeast to skin
